The source of these data is US20250145606A1 (Arcus Biosciences, Inc., priority 2023, published 2025).

One series deals with FLT3 (Homo sapiens (Human), UniProt P36888). Briefly: Inhibition of FLT3 kinase activity (HTRF KinEASE-TK). The format is biochemical. Conditions: biochemical. The gist of the method:
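FLT3 tyrosine kinase activity was measured with the HTRF KinEASE-TK kit by following phosphorylation of a biotinylated TK peptide. After the 45 min reaction, 10 μL of detection mix was added: 0.2 μM (2×) Streptavidin-XL665 and 2 μM (2×) TK-Antibody-Cryptate in detection buffer. After 60 min, TR-FRET was read on an Envision as the 665 nm/620 nm emission ratio with 320 nm excitation.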

The next series deals with beagle dog hepatocytes. The series is described as follows: Bioactivation assessment in dog hepatocytes. To be noted: 5 μM, 4 hours. Format: in vitro ADME. As to the method: (§1) Bioactivation Assessment Procedure
(§2) Pooled male Sprague Dawley rat (BioIVT), male beagle dog (BioIVT), male cynomolgus monkey (BioIVT), and a 50-donor pool of cryopreserved human hepatocytes (BioIVT) was thawed in pre-warmed 37° C. InVitroGro™ HT media (BioIVT), centrifuged, and resuspended in the InVitroGro™ HI media (BioIVT). The number of viable cells was determined by the Trypan blue exclusion method. The cells were diluted to a concentration of two million viable cells per milliliter (viability >80%) and seeded into round-bottom 96-well plates. The test articles were dissolved in DMSO and further diluted in 50% CH3CN and InVitroGro™ HI media with final concentrations of 0.05% DMSO and 0.5% CH3CN in the incubation mixture. Incubation was performed at a final concentration of one million cells per milliliter and 5 μM test compounds with continuous shaking at 1100 rpm in a 37° C., 5/95% CO2/air incubator with 100% relative humidity. After 4 hours, the samples were quenched by addition of 3 volumes of CH3CN, vortexed for 15 minutes, and centrifuged at 4200 rpm for 15 minutes at 10° C. (Sorvall Legend XTR centrifuge, Thermo Scientific, Langenselbold, Germany). 80 μL of the resulting supernatant was transferred into a new plate and mixed with 160 μL water followed by liquid chromatography-high resolution mass spectrometry (LC-HRMS) analysis.
(§3) Structural assignments of metabolites were determined through mass spectral analysis. The level of bioactivation was estimated based on the relative peak area of bioactivation products to all identified metabolites. The following equation was used: […]
(§4) Bioactivation products included glutathione conjugates, imine methides, quinones, diols, and other relevant metabolites.

The next series concerns the target CSF1R (Homo sapiens (Human), UniProt P07333). Briefly: Inhibition of CSF1R kinase activity (HTRF KinEASE-TK). Conditions: biochemical. In a few lines:
(§5)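 Phosphorylation of biotinylated TK peptide read by HTRF (665/620 nm ratio) after 120 min at rt, following 1 h enzyme–compound preincubation. ATP (2× mix): 20 μM CSF1R, 16 μM c-Kit, 40 μM PDGFRβ, 1 μM PDGFRα; MgCl2 10 mM except c-Kit 5 mM. 22-point 1:2 titration; four-parameter IC50.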
(In general: In TR-FRET formats the signal depends on donor and acceptor labels being close together.)

A further series addresses PDGFRα (Homo sapiens (Human), UniProt P16234). Briefly: Inhibition of PDGFRα kinase activity (HTRF KinEASE-TK). To be noted: biochemical. In a few lines: as §5
Series [1] has as its system Sprague Dawley rat hepatocytes. Briefly: Bioactivation assessment in rat hepatocytes. Format: in vitro ADME. Conditions: 5 μM, 4 hours. The procedure:
as §1, §2, §3, §4

The next series concerns the target c-Kit (Homo sapiens (Human), UniProt P10721). Briefly: Inhibition of c-Kit kinase activity (HTRF KinEASE-TK). To be noted: biochemical. The format is biochemical. In a few lines: as §5
The next series concerns the target PDGFRβ (Homo sapiens (Human), UniProt P09619). The series is described as follows: Inhibition of PDGFRβ kinase activity (HTRF KinEASE-TK). To be noted: biochemical. The gist of the method: as §5

Structures are written as SMILES. Marks after values point to notes of the source that are not given here.

Sequence of FLT3 (P36888 27-993): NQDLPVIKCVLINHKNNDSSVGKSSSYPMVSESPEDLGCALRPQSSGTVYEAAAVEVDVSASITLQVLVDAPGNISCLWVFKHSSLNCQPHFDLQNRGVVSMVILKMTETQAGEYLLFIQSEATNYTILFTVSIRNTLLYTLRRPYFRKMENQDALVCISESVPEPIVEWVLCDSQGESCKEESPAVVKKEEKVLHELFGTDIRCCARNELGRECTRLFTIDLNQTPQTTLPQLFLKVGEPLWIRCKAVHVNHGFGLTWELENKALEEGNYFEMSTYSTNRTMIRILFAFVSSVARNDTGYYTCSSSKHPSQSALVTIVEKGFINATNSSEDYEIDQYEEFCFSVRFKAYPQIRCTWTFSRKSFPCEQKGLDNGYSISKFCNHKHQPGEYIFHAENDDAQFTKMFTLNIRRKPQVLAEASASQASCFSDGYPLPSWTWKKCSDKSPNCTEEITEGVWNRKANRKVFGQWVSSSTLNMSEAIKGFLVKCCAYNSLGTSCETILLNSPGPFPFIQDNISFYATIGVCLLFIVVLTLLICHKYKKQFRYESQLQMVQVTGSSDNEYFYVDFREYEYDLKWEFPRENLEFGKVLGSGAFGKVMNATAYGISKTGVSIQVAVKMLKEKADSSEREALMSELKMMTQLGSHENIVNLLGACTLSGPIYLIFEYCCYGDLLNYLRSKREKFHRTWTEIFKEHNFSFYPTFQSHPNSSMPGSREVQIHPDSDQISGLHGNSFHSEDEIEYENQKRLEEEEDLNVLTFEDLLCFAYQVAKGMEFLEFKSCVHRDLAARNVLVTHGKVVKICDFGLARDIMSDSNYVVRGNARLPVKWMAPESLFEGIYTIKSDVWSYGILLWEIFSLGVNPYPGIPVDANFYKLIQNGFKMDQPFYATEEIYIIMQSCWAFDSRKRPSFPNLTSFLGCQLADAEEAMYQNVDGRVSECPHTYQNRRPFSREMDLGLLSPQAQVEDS
Sequence of c-Kit (P10721 26-976): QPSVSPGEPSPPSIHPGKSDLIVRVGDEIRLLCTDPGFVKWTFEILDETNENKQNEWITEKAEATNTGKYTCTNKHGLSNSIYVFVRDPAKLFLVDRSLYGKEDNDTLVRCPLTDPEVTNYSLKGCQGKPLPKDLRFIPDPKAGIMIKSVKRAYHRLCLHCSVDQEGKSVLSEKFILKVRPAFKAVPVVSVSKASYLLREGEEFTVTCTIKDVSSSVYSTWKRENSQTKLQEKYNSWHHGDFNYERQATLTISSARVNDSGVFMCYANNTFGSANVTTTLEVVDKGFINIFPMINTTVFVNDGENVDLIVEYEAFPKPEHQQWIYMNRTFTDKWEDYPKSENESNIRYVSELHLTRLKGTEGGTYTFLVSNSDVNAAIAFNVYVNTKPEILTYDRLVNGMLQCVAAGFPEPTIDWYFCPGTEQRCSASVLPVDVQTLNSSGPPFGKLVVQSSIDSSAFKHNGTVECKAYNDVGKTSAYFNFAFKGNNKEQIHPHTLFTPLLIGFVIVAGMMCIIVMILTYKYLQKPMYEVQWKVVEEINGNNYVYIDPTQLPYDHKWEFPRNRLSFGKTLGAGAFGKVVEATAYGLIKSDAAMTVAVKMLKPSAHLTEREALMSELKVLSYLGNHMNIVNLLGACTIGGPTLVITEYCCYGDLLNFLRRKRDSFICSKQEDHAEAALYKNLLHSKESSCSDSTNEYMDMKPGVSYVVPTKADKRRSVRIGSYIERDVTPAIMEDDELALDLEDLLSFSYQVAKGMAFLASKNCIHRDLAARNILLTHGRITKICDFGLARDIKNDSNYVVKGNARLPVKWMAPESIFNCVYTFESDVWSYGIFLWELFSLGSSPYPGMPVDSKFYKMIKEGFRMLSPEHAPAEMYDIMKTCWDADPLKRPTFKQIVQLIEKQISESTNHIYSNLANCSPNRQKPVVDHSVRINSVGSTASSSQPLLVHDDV
Sequence of PDGFRβ (P09619 33-1106): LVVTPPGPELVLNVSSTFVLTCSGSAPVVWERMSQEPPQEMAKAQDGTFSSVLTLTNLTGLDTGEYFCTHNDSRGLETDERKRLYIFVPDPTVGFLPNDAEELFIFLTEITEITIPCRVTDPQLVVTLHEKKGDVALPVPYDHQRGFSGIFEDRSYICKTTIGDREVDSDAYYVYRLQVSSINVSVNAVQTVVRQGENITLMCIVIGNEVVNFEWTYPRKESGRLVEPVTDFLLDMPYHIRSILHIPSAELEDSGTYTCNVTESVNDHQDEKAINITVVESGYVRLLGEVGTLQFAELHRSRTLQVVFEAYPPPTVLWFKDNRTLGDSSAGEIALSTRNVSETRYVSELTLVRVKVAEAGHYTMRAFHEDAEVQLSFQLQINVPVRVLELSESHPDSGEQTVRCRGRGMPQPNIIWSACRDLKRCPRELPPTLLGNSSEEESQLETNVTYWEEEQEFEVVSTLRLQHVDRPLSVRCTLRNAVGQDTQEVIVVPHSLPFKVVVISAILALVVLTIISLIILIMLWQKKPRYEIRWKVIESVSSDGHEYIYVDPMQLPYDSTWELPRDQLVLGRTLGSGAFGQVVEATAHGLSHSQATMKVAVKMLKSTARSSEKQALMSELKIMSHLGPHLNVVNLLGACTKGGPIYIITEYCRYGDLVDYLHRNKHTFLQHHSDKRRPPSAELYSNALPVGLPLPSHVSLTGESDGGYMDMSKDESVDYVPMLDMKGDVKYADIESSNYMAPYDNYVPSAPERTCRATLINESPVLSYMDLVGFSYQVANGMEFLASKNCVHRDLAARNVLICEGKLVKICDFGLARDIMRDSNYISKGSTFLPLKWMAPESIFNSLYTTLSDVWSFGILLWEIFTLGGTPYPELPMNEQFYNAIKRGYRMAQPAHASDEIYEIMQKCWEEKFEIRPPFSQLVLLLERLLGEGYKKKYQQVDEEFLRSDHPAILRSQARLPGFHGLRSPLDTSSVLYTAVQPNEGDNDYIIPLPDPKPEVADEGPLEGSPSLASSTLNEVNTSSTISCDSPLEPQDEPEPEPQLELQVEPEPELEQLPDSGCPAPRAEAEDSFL
Sequence of CSF1R (P07333 20-972): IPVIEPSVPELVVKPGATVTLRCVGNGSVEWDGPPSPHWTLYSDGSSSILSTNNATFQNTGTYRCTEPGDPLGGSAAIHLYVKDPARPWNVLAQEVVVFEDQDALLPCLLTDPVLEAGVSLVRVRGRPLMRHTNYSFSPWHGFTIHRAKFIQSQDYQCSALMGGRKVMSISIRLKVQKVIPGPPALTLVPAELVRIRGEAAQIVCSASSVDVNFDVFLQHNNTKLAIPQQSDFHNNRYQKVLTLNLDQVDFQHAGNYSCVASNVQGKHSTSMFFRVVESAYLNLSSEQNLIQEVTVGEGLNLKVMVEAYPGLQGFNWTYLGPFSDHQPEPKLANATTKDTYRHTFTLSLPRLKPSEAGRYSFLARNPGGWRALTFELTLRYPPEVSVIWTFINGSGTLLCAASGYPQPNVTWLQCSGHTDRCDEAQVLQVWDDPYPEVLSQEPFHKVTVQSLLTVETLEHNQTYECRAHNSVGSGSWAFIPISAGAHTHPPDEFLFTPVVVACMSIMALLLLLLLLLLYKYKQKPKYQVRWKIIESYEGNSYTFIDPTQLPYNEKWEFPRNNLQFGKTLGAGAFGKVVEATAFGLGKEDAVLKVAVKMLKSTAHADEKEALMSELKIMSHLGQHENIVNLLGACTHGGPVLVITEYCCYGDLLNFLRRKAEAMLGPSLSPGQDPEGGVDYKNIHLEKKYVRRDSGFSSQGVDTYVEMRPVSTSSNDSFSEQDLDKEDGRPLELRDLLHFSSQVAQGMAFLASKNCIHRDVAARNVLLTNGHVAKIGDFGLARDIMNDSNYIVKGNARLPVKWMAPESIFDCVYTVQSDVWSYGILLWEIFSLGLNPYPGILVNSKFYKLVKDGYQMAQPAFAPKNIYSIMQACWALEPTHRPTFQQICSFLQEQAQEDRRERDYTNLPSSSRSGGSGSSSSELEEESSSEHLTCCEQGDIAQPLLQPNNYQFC
Sequence of PDGFRα (P16234 24-1089): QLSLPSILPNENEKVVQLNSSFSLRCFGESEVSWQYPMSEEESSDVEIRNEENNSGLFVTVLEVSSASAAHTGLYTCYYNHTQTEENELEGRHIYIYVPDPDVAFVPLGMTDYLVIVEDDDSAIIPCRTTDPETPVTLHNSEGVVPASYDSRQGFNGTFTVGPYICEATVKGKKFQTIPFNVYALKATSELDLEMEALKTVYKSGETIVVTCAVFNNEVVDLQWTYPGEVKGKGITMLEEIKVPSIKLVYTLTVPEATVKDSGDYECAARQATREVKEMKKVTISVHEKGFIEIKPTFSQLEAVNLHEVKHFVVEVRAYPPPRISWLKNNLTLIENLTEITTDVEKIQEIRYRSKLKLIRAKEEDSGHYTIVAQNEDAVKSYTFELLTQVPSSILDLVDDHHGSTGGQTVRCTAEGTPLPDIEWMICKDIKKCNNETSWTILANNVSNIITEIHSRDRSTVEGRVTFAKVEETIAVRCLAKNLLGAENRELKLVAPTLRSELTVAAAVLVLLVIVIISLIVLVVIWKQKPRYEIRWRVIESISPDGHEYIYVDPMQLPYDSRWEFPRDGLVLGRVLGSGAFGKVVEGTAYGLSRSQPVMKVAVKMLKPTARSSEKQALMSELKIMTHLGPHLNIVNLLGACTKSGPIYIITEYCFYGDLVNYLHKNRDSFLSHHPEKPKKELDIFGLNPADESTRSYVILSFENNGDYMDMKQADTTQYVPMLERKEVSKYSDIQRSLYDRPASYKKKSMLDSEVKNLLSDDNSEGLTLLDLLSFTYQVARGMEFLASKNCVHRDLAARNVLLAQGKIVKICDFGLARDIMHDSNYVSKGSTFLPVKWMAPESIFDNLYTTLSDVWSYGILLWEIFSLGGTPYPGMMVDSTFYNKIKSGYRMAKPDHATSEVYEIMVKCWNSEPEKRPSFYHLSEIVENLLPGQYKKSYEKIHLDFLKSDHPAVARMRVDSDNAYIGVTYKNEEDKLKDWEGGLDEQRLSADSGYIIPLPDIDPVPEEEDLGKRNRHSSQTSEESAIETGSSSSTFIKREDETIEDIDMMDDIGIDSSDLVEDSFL

Take `Cc1ncc(C(=O)Nc2cc(C(=O)Nc3ccc(CC(F)(F)F)cn3)c(F)cc2C)s1` [Example 1, N-[4-Fluoro-2-methyl-5-[[5-(2,2,2-trifluoroethyl)pyridin-2-yl]carbamoyl]phenyl]-2-methyl-1,3-thiazole-5-carboxamide]: the IC50 on FLT3 was over 1000 nM; against CSF1R, over 1000 nM; at PDGFRα, over 1000 nM; on c-Kit, under 100 nM; against PDGFRβ it was over 1000 nM. Moreover, the “Percent of total metabolism via bioactivation, Dog hepatocytes” value (“Percent … Dog hepatocytes” below) in the series on beagle dog hepatocytes is under 1%^b. Also, in series [1], the “Percent of total metabolism via bioactivation, Rat hepatocytes” value (shortened to “Percent … Rat hepatocytes”) is recorded as 3-7%^b.
`Cc1ncc(C(=O)Nc2cc(C(=O)Nc3ccc(OC4CC4)cn3)c(F)cc2C)s1` [Example 2, N-[5-[(5-Cyclopropyloxypyridin-2-yl)carbamoyl]-4-fluoro-2-methylphenyl]-2-methyl-1,3-thiazole-5-carboxamide]: the IC50 against FLT3 is over 1000 nM; against CSF1R, over 1000 nM; against PDGFRα, over 1000 nM; against c-Kit, under 100 nM; at PDGFRβ it was over 1000 nM. The “Percent … Dog hepatocytes” value in the series with beagle dog hepatocytes is given as 3-4%^a. The “Percent … Rat hepatocytes” value in series [1] is 1-2%ª.
In the case of `Cc1ncc(C(=O)Nc2cc(C(=O)Nc3ccc(C4CC4)cn3)c(F)cc2C)s1` [Example 3, N-[5-[(5-Cyclopropylpyridin-2-yl)carbamoyl]-4-fluoro-2-methylphenyl]-2-methyl-1,3-thiazole-5-carboxamide], the 50% inhibitory concentration (IC50) against FLT3 was over 1000 nM; against CSF1R, over 1000 nM; against PDGFRα, over 1000 nM; at c-Kit, under 100 nM; at PDGFRβ, over 1000 nM. Also, the “Percent … Dog hepatocytes” value with beagle dog hepatocytes was 2%. For the same compound, the “Percent … Rat hepatocytes” value in series [1] is under 0.1%.
For `Cc1ncc(C(=O)Nc2cc(C(=O)Nc3cnc(OCC(C)(F)F)cn3)c(F)cc2C)s1` [Example 4, N-[5-[[5-(2,2-Difluoropropoxy)pyrazin-2-yl]carbamoyl]-4-fluoro-2-methylphenyl]-2-methyl-1,3-thiazole-5-carboxamide], the IC50 was over 1000 nM against FLT3; over 1000 nM against CSF1R; over 1000 nM against PDGFRα; under 100 nM against c-Kit; over 1000 nM against PDGFRβ. In the series with beagle dog hepatocytes, the “Percent … Dog hepatocytes” value is on record as under 1%^a. In series [1], the “Percent … Rat hepatocytes” value is on record as under 1%^a.
As to `Cc1ncc(C(=O)Nc2cc(C(=O)Nc3ccc(CC4CC4)cn3)c(F)cc2C)s1` [Example 5, N-[5-[[5-(Cyclopropylmethyl)pyridin-2-yl]carbamoyl]-4-fluoro-2-methylphenyl]-2-methyl-1,3-thiazole-5-carboxamide], the IC50 is over 1000 nM against FLT3; over 1000 nM on CSF1R; over 1000 nM on PDGFRα; under 100 nM on c-Kit; over 1000 nM against PDGFRβ. In addition, in the series on beagle dog hepatocytes, the “Percent … Dog hepatocytes” value was determined as 4%. The “Percent … Rat hepatocytes” value in series [1] is recorded as under 1%.
As for `Cc1ncc(C(=O)Nc2cc(C(=O)Nc3ccc(OC(F)F)cn3)c(F)cc2C)s1` [Example 38, N-[5-[[5-(difluoromethoxy)pyridin-2-yl]carbamoyl]-4-fluoro-2-methylphenyl]-2-methyl-1,3-thiazole-5-carboxamide], the IC50 is over 1000 nM at FLT3 (HTRF KinEASE-TK); over 1000 nM at CSF1R (HTRF KinEASE-TK); over 1000 nM at PDGFRα (HTRF KinEASE-TK); under 100 nM against c-Kit (HTRF KinEASE-TK); over 1000 nM at PDGFRβ (HTRF KinEASE-TK). Also, the “Percent … Dog hepatocytes” value in the series with beagle dog hepatocytes is under 1%. In series [1], the “Percent … Rat hepatocytes” value is 2%.
As to `Cc1ncc(C(=O)Nc2cc(C(=O)Nc3ccc(CC(F)(F)F)cn3)c(F)cc2Cl)s1` [Example 46, N-[2-chloro-4-fluoro-5-[[5-(2,2,2-trifluoroethyl)pyridin-2-yl]carbamoyl]phenyl]-2-methyl-1,3-thiazole-5-carboxamide], the IC50 is over 1000 nM on FLT3 (HTRF KinEASE-TK); over 1000 nM against CSF1R (HTRF KinEASE-TK); over 1000 nM at PDGFRα (HTRF KinEASE-TK); under 100 nM at c-Kit (HTRF KinEASE-TK); over 1000 nM at PDGFRβ (HTRF KinEASE-TK). Besides, the “Percent … Dog hepatocytes” value in the series on beagle dog hepatocytes worked out at 97%. The “Percent … Rat hepatocytes” value in series [1] came to 80%.

What is called IC50 is the point on the concentration scale where inhibition reaches its midpoint.
